Experiment [1] has as its system HIV-1AD8 Env on VLPs. The experiment is described as follows: Reversibility of compound effects on VLP Env conformation (19b antibody recognition after washing). The settings on record: for Durability / reversibility of Env conformational effects (in words): after washing. As to the method: (§1) Characterization of VLP-associated Env: To prepare VLPs with HIV-1AD8 Env, 150-mm dishes of 30-40% confluent A549-Gag/Env cells were seeded and, on the following day, treated with 2 μg/ml doxycycline. Approximately 72 hours after induction, cell supernatants were harvested and cleared by low-speed centrifugation (500×g for 15 minutes at 4° C.) and 0.45-μ filtration. VLPs were pelleted by centrifugation at 100,000×g for one hour at 4° C. The resuspended VLP preparation was clarified by low-speed centrifugation. BMS-806 and compounds described herein were added to the clarified VLP-containing suspensions. In some cases, the VLP-compound mixtures were irradiated with a 100-watt, 365-nm ultraviolet (UV) lamp for 10 minutes at room temperature. For all UV studies, exposure of the samples to visible light was minimized.
For studies of the reversibility of effects, the compounds were added to the VLPs and mixed for several seconds at room temperature. Then the VLPs were pelleted (20,000×g for 30 minutes at 4° C.) twice, washing with 1.5 ml PBS with 2% DMSO. The pelleted VLPs were resuspended in 1 ml PBS with 2% DMSO and incubated at room temperature for various lengths of time (20 minutes—3 weeks). Control VLPs were incubated in the continued presence of the compounds at room temperature for the same length of time. Then the VLPs were pelleted (20,000×g for 30 minutes at 4° C.) and the pellet incubated with 1.5% Triton X-100 for 30 minutes at 4° C. The VLP lysates were centrifuged (20,000×g for 30 minutes at 4° C.) and the supernatants were incubated with antibodies (10 μg/ml) in a 50-μl volume with 25 mg/ml of Protein A-Sepharose beads for one hour at 4° C. The beads were pelleted (1000 rpm for 1 minute at room temperature) and washed three times with 1 ml wash buffer with 1% Triton X-100. The beads were suspended in NuPAGE LDS Sample Buffer (ThermoFisher), boiled and analyzed by Western blot, as described above.
The BMS-806-induced decrease in binding of the 19b anti-V3 antibody can be used as an indicator of BMS-806-Env binding, allowing estimation of the stability of the Env-compound complex. BMS-806 and BMS-529 were incubated with the HIV-1AD8 Env on VLPs. The VLPs were then washed and incubated at room temperature for various lengths of time in a buffer with (+/+) or without (+/−) compound. After this incubation, Env conformation was assessed using the 19b anti-V3 antibody, the 2G12 antibody (the binding of which is not affected by BMS-806), and a negative control human immunoglobulin (hIgG) preparation. 19b recognition of Env in the washed samples (+/−) was compared with those in the samples continuously incubated with the compound (+/+) and the untreated samples (−) (FIG. 4). […] Despite this slow rate of dissociation of compounds described herein from Env, the binding and the consequent effects of these compounds on Env conformation appear to be reversible.

Experiment [2] relates to HIV-1 with JR-FL S375W Env. The experiment is classed as cell-based. Conditions: Cf2Th-CD4/CCR5 target cells, 48 hours, luciferase; read-out: 50% inhibitory concentration (IC50), JR-FL S375W.
Experiment [3] concerns HIV-1 with HIV-1JR-FL Env. The experiment is described as follows: microbe, parasite or virus in culture. The class given is cell-based. Conditions: Human immunodeficiency virus 1; Cf2Th-CD4/CCR5 target cells, 48 hours, luciferase; means and standard errors of four experiments; read-out: 50% inhibitory concentration (IC50), JR-FL.
For experiment [4], the system named is envelope glycoproteins of the amphotropic murine leukemia virus (AMLV). Kind of experiment: microbe, parasite or virus in culture. The class given is cell-based. The settings on record: Cf2Th-CD4/CCR5 target cells, 48 hours, luciferase, specificity control, read-out: 50% inhibitory concentration (IC50), AMLV.
In the next experiment the test system is HIV-1 with BG505 Env. The experiment is described as follows: microbe, parasite or virus in culture. The experiment is classed as cell-based. Conditions: Human immunodeficiency virus 1; Cf2Th-CD4/CCR5 target cells, 48 hours, luciferase; means and standard errors of four experiments; read-out: 50% inhibitory concentration (IC50), BG505.
Another experiment has as its system HIV-1 with HIV-1AD8 Env. Kind of experiment: microbe, parasite or virus in culture. The experiment is classed as cell-based. The settings on record: for IC50: Human immunodeficiency virus 1, Cf2Th-CD4/CCR5 target cells, 48 hours, luciferase, means and standard errors of four experiments, read-out: 50% inhibitory concentration (IC50), AD8; for Potency of inhibition of HIV-1 infection (in words): Table 1 HIV-1 Envs.

In another experiment the test system is VLP HIV-1AD8 Env. Kind of experiment: Antibody recognition of VLP-associated Env. The settings on record: compound plus UV irradiation. As to the method:
as §1
For studies of the binding of ligands (antibodies, CD4-Ig and C34-Ig) to detergent-solubilized VLP Env, VLPs prepared as described above were pelleted (20,000×g for 30 minutes at 4° C.). The pellet was incubated with 1.5% Triton X-100 for 30 minutes at 4° C. The VLP lysates were centrifuged (20,000×g for 30 minutes at 4° C.) and the supernatants were incubated with ligands (10 μg/ml) in a 50-μl volume with 25 mg/ml of Protein A-Sepharose beads for one hour at 4° C. The beads were pelleted (1000 rpm for 1 minute at room temperature), washed three times with 1 ml wash buffer with 1% Triton X-100, suspended in LDS Sample Buffer and analyzed by Western blot, as described above.
In a second assay format, the effect of the compounds was analyzed on the binding of antibodies to Env on intact VLPs, in the absence of detergent. In this case, VLPs in A549-Gag/Env supernatants, clarified as described above, were pelleted at 100,000×g for one hour at 4° C. The pellet was resuspended in PBS and the VLPs pelleted at 20,000×g for 30 minutes at 4° C. The VLPs were resuspended in PBS and incubated with antibodies (10 μg/ml) in a 100-μl volume for one hour at 4° C. The VLPs were then pelleted (20,000×g for 30 minutes at 4° C.) and washed with PBS three times. The VLP pellet was then solubilized in 1.5% Triton X-100 for 30 minutes at 4° C., after which the VLP lysates were clarified by centrifugation at 20,000×g for 30 minutes at 4° C. The supernatants were incubated with 50 μl of Protein A-Sepharose beads for one hour at 4° C. The beads were pelleted (1000 rpm for 1 minute at room temperature), washed three times with 1 ml wash buffer with 1% Triton X-100, suspended in LDS Sample Buffer, and analyzed by Western blot, as described above.

The test system of experiment [5] is HIV-1AD8 Env on VLPs. The experiment is described as follows: Shedding of gp120 from VLP Env. Conditions: 4° C. and 37° C., 4 days, no detergent. As to the method:
Shedding of gp120 from VLP Env: The effect of compounds on the spontaneous shedding of gp120 from VLP Env was evaluated. VLPs with the wild-type HIV-1AD8 Env were prepared from the supernatants of A549-Gag/Env cells, as described above. The VLPs were suspended in PBS, to which was added either DMSO or a compound described herein. An aliquot of the VLP suspension in PBS/DMSO was processed as described below to serve as a Day 0 control. The VLP suspensions were incubated for 4 days at 4° C., room temperature or 37° C. (with gentle rocking). Then the VLPs were pelleted (100,000×g for 30 min at 4° C.). The pellets and supernatants were boiled in LDS sample buffer and analyzed by Western blotting with either 1:2000 goat anti-gp120 polyclonal antibody (ThermoFisher) and HRP-conjugated rabbit anti-goat IgG antibody, or with 1:5000 rabbit anti-Gag p55/p24/p17 antibody (Abcam) and HRP-conjugated goat anti-rabbit IgG antibody (Abcam).

On to `COc1ccc(-c2ccc(CNC(=O)c3ccc(C4(C(F)(F)F)N=N4)cc3)o2)c2[nH]cc(C(=O)C(=O)N3CCN(C(=O)c4ccccc4)CC3)c12` [AEG-II-159], for which the “Durability / reversibility of Env conformational effects (in words)” value in the experiment with HIV-1AD8 Env on VLPs [1] is listed as “at least three weeks”. Moreover, the IC50 was > 100 nM in experiment [2]; 1.6 nM in experiment [3]; > 100 nM in experiment [4]; 0.8 nM with HIV-1 with BG505 Env; 0.2 nM in the experiment on HIV-1 with HIV-1AD8 Env.
As to `COc1ccc(-c2ccc(CNC(=O)c3ccccc3)o2)c2[nH]cc(C(=O)C(=O)N3CCN(C(=O)c4ccccc4)CC3)c12` [AEG-III-032], the IC50 in experiment [2] is > 100 nM; in experiment [3], 0.6 nM; in experiment [4], > 100 nM; in the experiment with HIV-1 with BG505 Env, 1.5 nM; in the experiment on HIV-1 with HIV-1AD8 Env it was 0.36 nM. The “Potency of inhibition of HIV-1 infection (in words)” value in the experiment with HIV-1 with HIV-1AD8 Env is “potencies comparable to that of BMS-806”.
For the molecule `O=C(Nc1cccc2c(C(=O)C(=O)N3CCN(C(=O)c4ccccc4)CC3)c[nH]c12)c1ccccc1` [AEG-III-096], the “Durability / reversibility of Env conformational effects (in words)” value in the experiment with HIV-1AD8 Env on VLPs [1] is recorded as “much faster reversibility”. Further, the IC50 in experiment [2] is > 100 nM; in experiment [3], 0.9 nM; in experiment [4] it was > 100 nM; with HIV-1 with HIV-1AD8 Env, 2.4 nM. In addition, the “Potency of inhibition of HIV-1 infection (in words)” value in the experiment with HIV-1 with HIV-1AD8 Env is on record as “potencies comparable to that of BMS-806”.
With `O=C(Nc1cccc2c(C(=O)C(=O)N3CCN(C(=O)c4ccccc4)CC3)c[nH]c12)c1ccc(C2(C(F)(F)F)N=N2)cc1` [AEG-III-087], the IC50 is > 100 nM in experiment [2]; 0.1 nM in experiment [3]; > 100 nM in experiment [4]; 1.9 nM in the experiment on HIV-1 with BG505 Env; 0.06 nM with HIV-1 with HIV-1AD8 Env. Also, in the experiment on VLP HIV-1AD8 Env (washed, two weeks without compound), the “VLP Env recognition by poorly neutralizing antibodies two weeks after treatment” value is listed as “lowered Env recognition by poorly neutralizing antibodies”. For the same molecule, the “VLP Env recognition by bNAbs two weeks after treatment” value with VLP HIV-1AD8 Env (PG9, PGT145, PGT151, 35022, 2F5, 4E10, 10E8) is given as “this increase was not seen”. The “Spontaneous shedding of gp120 into the VLP supernatant” value with HIV-1AD8 Env on VLPs [5] is “decreased the shedding of gp120”.
As for `COc1cnc(-n2cnc(C)n2)c2[nH]cc(C(=O)C(=O)N3CCN(C(=O)c4ccccc4)CC3)c12` [BMS-529, reference compound], the “Time until conformational effects on Env are reversed after washing” value with HIV-1AD8 Env on VLPs [1] (VLPs in PBS with 2% DMSO, room temperature) lay in the range of 2 to 4 days. The “Conformational effect on 19b binding after washing” value in the experiment with HIV-1AD8 Env on VLPs [1] (twenty-four hours after washing, room temperature) is reported as “still apparent”.

These data come from patent publication US12729194B2, “Compounds for the treatment of human immunodeficiency virus” (priority 2019, dated 2026).
